Reference: patent US20230116972A1, “CD38 MODULATORS AND METHODS OF USE THEREOF” (Cytokinetics, Inc., priority 2021, published 2023)

What was measured:
[1] = molecular target: T1, mouse CD38 (Mus musculus, UniProt P56528); test: mouse recombinant CD38 enzyme assay (hydrolysis of NAD+); assay type: biochemical; conditions: read-out: mCD38 BioChem IC50
T1 sequence (P56528 1-304): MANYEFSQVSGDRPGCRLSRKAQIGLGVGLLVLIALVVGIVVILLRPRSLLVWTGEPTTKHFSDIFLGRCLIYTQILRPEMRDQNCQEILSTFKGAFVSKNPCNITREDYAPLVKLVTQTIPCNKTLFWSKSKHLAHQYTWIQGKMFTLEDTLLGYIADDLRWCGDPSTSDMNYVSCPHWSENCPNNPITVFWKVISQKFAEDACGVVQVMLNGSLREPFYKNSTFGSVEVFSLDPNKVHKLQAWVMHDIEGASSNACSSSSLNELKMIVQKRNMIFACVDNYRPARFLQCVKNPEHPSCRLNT
How it was run: (§1)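 Recombinant human or mouse CD38 hydrolyzing NAD+ in a cell-free buffered system. Dose-responses were run for 60 min at ambient temperature. Remaining NAD+ was converted to NADH by alcohol dehydrogenase, which drove diaphorase reduction of resazurin to resorufin, read at 540/590 nm.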

[2] = molecular target: T2, human CD38 (Homo sapiens, UniProt P28907); test: human recombinant CD38 enzyme assay (hydrolysis of NAD+); assay type: biochemical; conditions: human recombinant CD38, 0.4 nM enzyme, 62.5 μM NAD+; read-out: hCD38 BioChem IC50
T2 sequence (P28907 1-300): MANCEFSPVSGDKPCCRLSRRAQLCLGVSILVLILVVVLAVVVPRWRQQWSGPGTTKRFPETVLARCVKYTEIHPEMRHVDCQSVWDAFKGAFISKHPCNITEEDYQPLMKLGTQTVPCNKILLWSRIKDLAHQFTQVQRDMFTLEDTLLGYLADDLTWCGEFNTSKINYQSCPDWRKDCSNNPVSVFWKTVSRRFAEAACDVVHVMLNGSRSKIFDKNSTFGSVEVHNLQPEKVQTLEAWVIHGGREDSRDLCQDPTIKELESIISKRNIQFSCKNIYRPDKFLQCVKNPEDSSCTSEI
How it was run: as §1

[3] = molecular target: T3, endogenous CD38 in HL60 cells (Homo sapiens, UniProt P28907); test: cellular CD38 assay in HL60 cells (cellular NAD levels); assay type: cell-based; conditions: all-trans retinoic acid, 24 hours, read-out: hCD38 HL60 ATRA NAD Cell Diaphorase IC50
T3 construct: endogenous in cells; host or cells: HL60 (leukemic cells, treated with all-trans retinoic acid)
T3 sequence (P28907 1-300): T2 sequence (P28907 1-300)
How it was run: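 HL60 cells (20000/well) were treated with compound in DMSO for 24 h. Cellular NAD was then measured by an enzymatic cycling mix (alcohol dehydrogenase, diaphorase, 40 uM resazurin, 10 uM FMN, 3% ethanol, Triton X-100, pH 8.4).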

COCCO[C@H]1CC[C@H](NC(=O)c2cccc(-c3cncn3C)n2)CC1 [Compound 65, N-(4-(2-methoxyethoxy)cyclohexyl)-6-(1-methyl-1H-imidazol-5-yl)picolinamide]
IC50 [1]: 62 nM
IC50 [2]: 224 nM
IC50 [3]: 7690 nM

COCCOc1cc(C(=O)Nc2ccc(C(F)(F)F)nc2)nc(-n2ccnc2)c1 [Compound 245, 6-(1H-imidazol-1-yl)-4-(2-methoxyethoxy)-N-(6-(trifluoromethyl)pyridin-3-yl)picolinamide]
IC50 [1]: 1 nM
IC50 [2]: 2.8 nM
IC50 [3]: 749 nM

O=C(Nc1ccc(C(F)(F)F)nc1)c1ccc(F)c(-n2ccnc2)n1 [Compound 53, 5-fluoro-6-(1H-imidazol-1-yl)-N-(6-(trifluoromethyl)pyridin-3-yl)picolinamide]
IC50 [1]: 10 nM
IC50 [2]: 10 nM
IC50 [3]: 675 nM

O=C(Nc1ccc(C(F)F)nc1)c1nccc(-n2ccnc2)n1 [Compound 144, N-(6-(difluoromethyl)pyridin-3-yl)-4-(1H-imidazol-1-yl)pyrimidine-2-carboxamide]
IC50 [1]: 14 nM
IC50 [2]: 3 nM
IC50 [3]: 129 nM

COc1ccc(NC(=O)c2cccc(-n3ccnc3)n2)cn1 [Compound 25, 6-(1H-imidazol-1-yl)-N-(6-methoxypyridin-3-yl)picolinamide]
IC50 [1]: 13 nM
IC50 [2]: 13 nM
IC50 [3]: 468 nM

COCCOc1cc(-c2cncn2C)nc(C(=O)Nc2ccc(C(F)F)nc2)n1 [Compound 224, N-(6-(difluoromethyl)pyridin-3-yl)-4-(2-methoxyethoxy)-6-(1-methyl-1H-imidazol-5-yl)pyrimidine-2-carboxamide]
IC50 [1]: 1.1 nM
IC50 [2]: 5.6 nM
IC50 [3]: 707 nM

CO[C@H]1CC[C@H](NC(=O)c2nc(-c3cncn3C)cc(C3CC3)n2)CC1 [Compound 203, 4-cyclopropyl-N-((1r,4r)-4-methoxycyclohexyl)-6-(1-methyl-1H-imidazol-5-yl)pyrimidine-2-carboxamide]
IC50 [1]: 12.1 nM
IC50 [2]: 161 nM
IC50 [3]: 7870 nM

Cn1cncc1-c1ccnc(C(=O)N[C@H]2C[C@H](c3ccc(F)cc3)C2)n1 [Compound 242, N-((1r,3r)-3-(4-fluorophenyl)cyclobutyl)-4-(1-methyl-1H-imidazol-5-yl)pyrimidine-2-carboxamide]
IC50 [1]: 21.3 nM
IC50 [2]: 28.8 nM
IC50 [3]: 2370 nM

Cn1cncc1-c1nc(C(=O)N[C@H]2C[C@](O)(c3ccccc3)C2)cc(C2CCOCC2)n1 [Compound 277, N-((1s,3s)-3-hydroxy-3-phenylcyclobutyl)-2-(1-methyl-1H-imidazol-5-yl)-6-(tetrahydro-2H-pyran-4-yl)pyrimidine-4-carboxamide]
IC50 [1]: 10.7 nM
IC50 [2]: 7.9 nM
IC50 [3]: 2070 nM

COc1cc(C(=O)Nc2ccc(C(F)F)nc2)nc(-c2cncn2C)n1 [Compound 129, N-(6-(difluoromethyl)pyridin-3-yl)-6-methoxy-2-(1-methyl-1H-imidazol-5-yl)pyrimidine-4-carboxamide]
IC50 [1]: 1 nM
IC50 [2]: 2 nM
IC50 [3]: 267 nM

CO[C@H]1CC[C@H](NC(=O)c2cc(C3CCOCC3)nc(-n3ccnc3)n2)CC1 [Compound 193, 2-(1H-imidazol-1-yl)-N-((1r,4r)-4-methoxycyclohexyl)-6-(tetrahydro-2H-pyran-4-yl)pyrimidine-4-carboxamide]
IC50 [1]: 39.8 nM
IC50 [2]: 131 nM
IC50 [3]: 11100 nM

CC(C)(O)c1cc(C(=O)Nc2ccc(C(F)(F)F)nc2)nc(-n2ccnc2)n1 [Compound 175, 6-(2-hydroxypropan-2-yl)-2-(1H-imidazol-1-yl)-N-(6-(trifluoromethyl)pyridin-3-yl)pyrimidine-4-carboxamide]
IC50 [1]: 335 nM
IC50 [2]: 330 nM
IC50 [3]: 6460 nM

CO[C@H]1CC[C@H](NC(=O)c2cc([C@H]3CC[C@@H](OC)CC3)nc(-c3cncn3C)n2)CC1 [Compound 315, N-((1r,4R)-4-methoxycyclohexyl)-6-((1s,4S)-4-methoxycyclohexyl)-2-(1-methyl-1H-imidazol-5-yl)pyrimidine-4-carboxamide]
IC50 [1]: 1.8 nM
IC50 [2]: 13.7 nM
IC50 [3]: 2280 nM

Cn1cncc1-c1nc(C(=O)N[C@H]2C[C@H](Oc3ccccc3)C2)cc(C2CCOCC2)n1 [Compound 291, 2-(1-methyl-1H-imidazol-5-yl)-N-((1r,3r)-3-phenoxycyclobutyl)-6-(tetrahydro-2H-pyran-4-yl)pyrimidine-4-carboxamide]
IC50 [1]: 3.4 nM
IC50 [2]: 4.1 nM
IC50 [3]: 2620 nM

CO[C@H]1CC[C@H](NC(=O)c2cc(C)cc(-n3ccnc3)n2)CC1 [Compound 96, 6-(1H-imidazol-1-yl)-N-(4-methoxycyclohexyl)-4-methylpicolinamide]
IC50 [1]: 3 nM
IC50 [2]: 23 nM
IC50 [3]: 1630 nM

Cc1ccc(-n2ccnc2)nc1C(=O)N[C@H]1CC[C@H](C(F)F)CC1 [Compound 101, N-(4-(difluoromethyl)cyclohexyl)-6-(1H-imidazol-1-yl)-3-methylpicolinamide]
IC50 [1]: 42 nM
IC50 [2]: 210 nM
IC50 [3]: 8310 nM

O=C(N[C@H]1CC[C@H](NCC(F)(F)F)CC1)c1nccc(-n2ccnc2)n1 [Compound 265, 4-(1H-imidazol-1-yl)-N-((1r,4r)-4-((2,2,2-trifluoroethyl)amino)cyclohexyl) pyrimidine-2-carboxamide]
IC50 [1]: 35.9 nM
IC50 [2]: 83.4 nM
IC50 [3]: 4170 nM

COc1ccc([C@H]2C[C@H](NC(=O)c3nccc(-c4cncn4C)n3)C2)cc1 [Compound 218, N-((1r,3r)-3-(4-methoxyphenyl)cyclobutyl)-4-(1-methyl-1H-imidazol-5-yl)pyrimidine-2-carboxamide]
IC50 [1]: 11.6 nM
IC50 [2]: 25.2 nM
IC50 [3]: 2220 nM

O=C(Nc1ccnc(C(F)(F)F)c1)c1cccc(-n2ccnc2)n1 [Compound 38, 6-(1H-imidazol-1-yl)-N-(2-(trifluoromethyl)pyridin-4-yl)picolinamide]
IC50 [1]: 7 nM
IC50 [2]: 10 nM
IC50 [3]: 873 nM

CO[C@H]1C[C@H](NC(=O)c2cccc(-n3ccnc3)n2)C1 [Compound 23, 6-(1H-imidazol-1-yl)-N-(3-methoxycyclobutyl)picolinamide]
IC50 [1]: 110 nM
IC50 [2]: 614 nM
IC50 [3]: 3890 nM

Cc1ncc(-c2cncn2C)nc1C(=O)Nc1ccc(C(F)(F)F)nc1 [Compound 296, 3-methyl-6-(1-methyl-1H-imidazol-5-yl)-N-(6-(trifluoromethyl)pyridin-3-yl)pyrazine-2-carboxamide]
IC50 [1]: 9.9 nM
IC50 [2]: 8.7 nM
IC50 [3]: 1140 nM

COC(=O)N1CC2(CC(NC(=O)c3cccc(-n4ccnc4)n3)C2)C1 [Compound 48, methyl 6-(6-(1H-imidazol-1-yl)picolinamido)-2-azaspiro[3.3]heptane-2-carboxylate]
IC50 [1]: 46 nM
IC50 [2]: 244 nM
IC50 [3]: 3760 nM

CO[C@H]1CC[C@H](NC(=O)c2cc(C)nc(-c3cncn3C)n2)CC1 [Compound 121, N-((1r,4r)-4-methoxycyclohexyl)-6-methyl-2-(1-methyl-1H-imidazol-5-yl)pyrimidine-4-carboxamide]
IC50 [1]: 1 nM
IC50 [2]: 14 nM
IC50 [3]: 1050 nM

CC(C)(O)c1cc(C(=O)Nc2ccc(C(F)F)nc2)nc(-n2ccnc2)n1 [Compound 158, N-(6-(difluoromethyl)pyridin-3-yl)-6-(2-hydroxypropan-2-yl)-2-(1H-imidazol-1-yl)pyrimidine-4-carboxamide]
IC50 [1]: 185 nM
IC50 [2]: 228 nM
IC50 [3]: 3980 nM

Cn1cncc1-c1ccnc(C(=O)N[C@H]2C[C@H](C(C)(C)O)C2)n1 [Compound 284, N-((1r,3r)-3-(2-hydroxypropan-2-yl)cyclobutyl)-4-(1-methyl-1H-imidazol-5-yl)pyrimidine-2-carboxamide]
IC50 [1]: 59.7 nM
IC50 [2]: 277 nM
IC50 [3]: 11000 nM

O=C(Nc1ccc(C(F)F)nc1)c1ccnc(-c2cncs2)n1 [Compound 114, N-(6-(difluoromethyl)pyridin-3-yl)-2-(thiazol-5-yl)pyrimidine-4-carboxamide]
IC50 [1]: 150 nM
IC50 [2]: 173 nM
IC50 [3]: 4330 nM

O=C(N[C@H]1CC[C@H](C(F)F)CC1)c1nccc(-n2ccnc2)n1 [Compound 73, N-((1r,4r)-4-(difluoromethyl)cyclohexyl)-4-(1H-imidazol-1-yl)pyrimidine-2-carboxamide]
IC50 [1]: 33 nM
IC50 [2]: 60 nM
IC50 [3]: 1990 nM

O=C(NC1CCOC1)c1cccc(-n2ccnc2)n1 (stereo not drawn) [Compound 63, 6-(1H-imidazol-1-yl)-N-(tetrahydrofuran-3-yl)picolinamide]
IC50 [1]: 163 nM
IC50 [2]: 404 nM
IC50 [3]: 5910 nM
